Test results from patent publication US20260234140A1, “PYRIDOPYRIMIDINE DERIVATIVE AND USE THEREOF” (SUNSHINE LAKE PHARMA CO., LTD., priority 2023, published 2026).

Legend:
[1] = test system: PD1/PD-L1 pathway; test: PD1/PD-L1 Blockade Bioassay, inhibition of the PD1/PD-L1 pathway at the cellular level (luciferase reporter, PD-1 Jukat T cells co-cultured with PD-L1 aAPC/CHO-K1 cells); assay type: cell-based; details: T-cell; for EC50: PD-1 Jukat T cells + PD-L1 aAPC/CHO-K1 cells, 6 h co-culture, ONE-Glo luciferase readout; for Emax: maximum % Activity relative to atezolizumab (set to 100%)
Protocol: Experiment 1: Detecting the Inhibitory Activity of Compounds on the PD1/PD-L1 Pathway at the Cellular Level Using the PD1/PD-L1 Blockade Bioassay Method
PD-1 Jukat T cells were revived and cultured with 1640 medium containing 100 μg/mL Hygromycin B, […] Puromycin, 10% FBS and 1% dual antibody; PD-L1 aAPC/CHO-K1 cells were revived and cultured with F12K medium containing 100 μg/mL Hygromycin B, 200 μg/mL G418, 10% FBS and 1% dual antibody.
The revived cells need to be passaged 2-3 times. When the cells enter the exponential growth phase with good growth status, the PD-L1 aAPC/CHO-K1 was digested with trypsin, and the cells were resuspended in F12K containing 5% FBS and adjusted to a density of 5×10^5 cells/mL. 20 μl/well were plated in a 384-well plate (10,000 cells/well) and incubated in an incubator overnight for 16-20 h.
a Preparation of compound stock solution: Dissolve the compound to be tested in DMSO to prepare a 20 mM stock solution.
b Compound gradient dilution: dilute the compound in 1640 medium containing 5% FBS without antibiotics or phenol red, and make 3-fold gradient dilutions to prepare 10 concentration gradients (2×).
c Adding drugs: Take out the cell culture plate, discard the supernatant, add 20 μl/well of the prepared compound, and incubate in the incubator for 1.5 h.
PD-1 Jukat T cells were collected, washed once with PBS, and resuspended in 1640 medium containing 5% FBS without antibiotics or phenol red. The density was adjusted to 1×10^6 cells/mL. 20 μl PD-1 Jukat T cells (20,000 cells/well) were added to each well and incubated in the incubator for 6 h.
ONE-Glo™ Luciferase Assay reagent was thawed to room temperature in advance and then added to a 384-well plate at 40 µl/well. Incubate in the dark for 15 minutes and read the […] signal on a plate reader.
[formula] • Among them, % Activity: % Activity • RLU: Resulting Luminescence unit • RLUvehicle: Average RLU value of negative control wells on each plate • RLUpositive: Average RLU value of positive control wells on each plate • Vehicle control: DMSO (0.1%) corresponding to the test value was used as negative control (its % Activity was 0%); • Positive control: The highest detection value at the atezolizumab administration concentration was used as the positive control (its % Activity was 100%). • (2) EC50 value calculation method: The EC50 value was obtained by the nonlinear fitting formula of Graph Pad Prism 8.0 software. The calculation formula is as follows:
Y=Bottom+(Top−Bottom)/(1+10^((Log EC50−X)×HillSlope)) • X: log of activator concentration (logarithm of compound concentration); Y: % Activity • (3) Emax definition: The maximum % Activity value corresponding to the maximum activation value of the compound relative to atezolizumab (the activation value is set to 100%).

[2] = Pharmacokinetics experiment in SD rats; assay type: in vivo; details: male SD rats; for AUC(0-t) / Cmax / half-life / clearance / Vd: rat, plasma; for Vd: read-out: Vss
Protocol: Experiment 2: Pharmacokinetics Experiment
1) Preparation of the compound solutions of Example 1 and Example 17: The test compound was prepared into a solution using 10% dimethyl sulfoxide, 10% Kolliphor HS15 and 80% physiological saline; Preparation of the compound solution of Example 11: The compound to be tested is prepared into a solution with 5% dimethyl sulfoxide, 5% Kolliphor HS15 and 90% saline for oral administration or intravenous injection.
2) Male SD rats weighing 250-345 g were randomly divided into two groups. One group was intravenously injected with the test compound at a dose of 1.0 mg/kg, and the other group was orally administered with the test compound at a dose of 5.0 mg/kg. Blood was collected at 0.083, 0.25, 0.5, 1, 2, 5, 7 and 24 hours after administration.
3) A standard curve of an appropriate range was established according to the sample concentration, and the concentration of the test compound in the plasma sample was determined in the MRM mode using an AB SCIEX Q TRAP 4000 LC-MS/MS. The pharmacokinetic parameters were calculated using the non-compartmental model method using WinNonLin 6.3 software.

Row | SMILES | EC50 [1] | Emax [1] | F ([2]; ig (oral), 5 mg/kg) | AUC(0-t) ([2]; ig (oral), 5 mg/kg) | Cmax ([2]; ig (oral), 5 mg/kg) | half-life ([2]; ig (oral), 5 mg/kg) | AUC(0-t) ([2]; iv, 1 mg/kg) | Cmax ([2]; iv, 1 mg/kg) | clearance ([2]; iv, 1 mg/kg) | half-life ([2]; iv, 1 mg/kg) | Vd ([2]; iv, 1 mg/kg)
1 | COc1nc(-c2cccc(-c3cccc(Nc4nc(C(F)F)nc5cc(CN6CC[C@@H](O)C6)cnc45)c3C)c2Cl)ccc1CN(C)[C@H]1CC[C@H](C(=O)O)CC1 [Example 1, (1r,4r)-4-(((6-(2-chloro-3′-((2-(difluoromethyl)-7-(((R)-3-hydroxypyrrolidin-1-yl)methyl)pyrido[3,2-d]pyrimidin-4-yl)amino)-2′-methyl-[1,1′-biphenyl]-3-yl)-2-methoxypyridin-3-yl)methyl)(methyl)amino)cyclohexane-1-carboxylic acid] | 44 nM | 98.2% | 32% | 12300 ng·h/mL | 935 ng/mL | 4.9 h | 7710 ng·h/mL | 877 ng/mL | 2.1 mL/min/kg | 5.4 h | 0.82 L/kg
2 | COc1nc(-c2cccc(-c3cccc(Nc4nc(C(F)F)nc5cc(CN6CC[C@@H](O)C6)cnc45)c3C)c2Cl)cnc1CN(C)[C@H]1CC[C@H](C(=O)O)CC1 [Example 11, (1r,4r)-4-(((5-(2-chloro-3′-((2-(difluoromethyl)-7-(((R)-3-hydroxypyrrolidin-1-yl)methyl)pyrido[3,2-d]pyrimidin-4-yl)amino)-2′-methyl-[1,1′-biphenyl]-3-yl)-3-methoxypyrazin-2-yl)methyl)(methyl)amino)cyclohexane-1-carboxylic acid] | 20.4 nM | 98.5% | 52.9% | 16700 ng·h/mL | 1630 ng/mL | 4.3 h | 6370 ng·h/mL | 1100 ng/mL | 2.6 mL/min/kg | 3.9 h | 0.75 L/kg
3 | COc1nc(-c2cccc(-c3cccc(Nc4nc(C(F)F)nc5cc(CN6CC[C@@H](O)C6)cnc45)c3C)c2Cl)ccc1CN(C)C[C@H]1CC[C@H](C(=O)O)CC1 [Example 17, (1r,4r)-4-((((6-(2-chloro-3′-((2-(difluoromethyl)-7-(((R)-3-hydroxypyrrolidin-1-yl)methyl)pyrido[3,2-d]pyrimidin-4-yl)amino)-2′-methyl-[1,1′-biphenyl]-3-yl)-2-methoxypyridin-3-yl)methyl)(methyl)amino)methyl)cyclohexane-1-carboxylic acid] | 109 nM | 94.1% | 55% | 27000 ng·h/mL | 1980 ng/mL |  | 9760 ng·h/mL | 675 ng/mL | 1.6 mL/min/kg | 7.5 h | 0.95 L/kg
4 | [2H]C([2H])([2H])N(Cc1ncc(-c2cccc(-c3cccc(Nc4nc(C(F)F)nc5cc(CN6CC[C@@H](O)C6)cnc45)c3C)c2Cl)cc1OC)C[C@H]1CC[C@H](C(=O)O)CC1 [Example 38, (1r,4r)-4-((((5-(2-chloro-3′-((2-(difluoromethyl)-7-(((R)-3-hydroxypyrrolidin-1-yl)methyl)pyrido[3,2-d]pyrimidin-4-yl)amino)-2′-methyl-[1,1′-biphenyl]-3-yl)-3-methoxypyridin-2-yl)methyl)(methyl-d3)amino)methyl)cyclohexane-1-carboxylic acid] |  |  | 57.8% | 25900 ng·h/mL | 1850 ng/mL | 6.1 h | 8890 ng·h/mL | 621 ng/mL | 1.7 mL/min/kg | 6.6 h | 0.91 L/kg
5 | COc1nc(-c2cccc(-c3cccc(Nc4nc(C(F)F)nc5cc(CN6CC[C@@H](O)C6)cnc45)c3C)c2Cl)ccc1CN1CCC(C(=O)O)CC1 [Example 40, (R)-1-((6-(2-chloro-3′-((2-(difluoromethyl)-7-((3-hydroxypyrrolidin-1-yl)methyl)pyrido[3,2-d]pyrimidin-4-yl)amino)-2′-methyl-[1,1′-biphenyl]-3-yl)-2-methoxypyridin-3-yl)methyl)piperidine-4-carboxylic acid] | 57.7 nM | 121% | 23% | 15100 ng·h/mL | 1260 ng/mL | 4.1 h | 12900 ng·h/mL | 1870 ng/mL | 1.3 mL/min/kg | 4.5 h | 0.43 L/kg
